PMC4274170 (Toxicology letters, 2014)
Where two headings read alike, the source gives them in different places.

Assays:
[1] = mouse, microsomes
[2] = rat, microsomes
[3] = human
in vitro [4] = settings: female, B6129SF1/J, mouse, pH 7.4
in vitro [5] = settings: male, Sprague-Dawley, rat, pH 7.4
in vitro [6] = settings: female, human, pH 7.4, Km
In vitro metabolism [7] = experiment: In vitro metabolism
In vitro metabolism [8] = assay type: in vitro ADME, mouse
humans = settings: ref WHO, 2010, 2012; cited from earlier work
In vitro metabolism [9] = settings: female human
In vitro metabolism [10] = experiment: In vitro metabolism; remark: listed apart in the source
[11] = pregnant relative to naïve female mice

With c1ccc2c(c1)cc1ccc3cccc4ccc2c1c34 [B[a]P, benzo[a]pyrene] the “B[a]P CLINT exceeded DBC CLINT, margin (in vitro half-life method)” value (“B[a]P CLINT exceeded DBC CLINT, margin” for short) ([1]; female, B6129SF1/J, pH 7.4) was 10.6 fold, the “CLINT for B[a]P exceeded that of DBC, margin (Michaelis-Menten regressions)” value (shortened to “CLINT for B[a]P exceeded that of DBC”) ([1]; female, B6129SF1/J, pH 7.4) was 9.0 fold and the “Organism level CLINT, MM” value [1] was 1445.2 ± 778.0 ml/min/kg body weight. The “Organism level CLINT, t 1/2” value [1] was 2699.0 ± 1803.4 ml/min/kg body weight, the “Tissue level CLINT, t 1/2” value [1] was 48.53 ± 32.79 ml/min/g tissue and the “B[a]P CLINT exceeded DBC CLINT, margin” value ([2]; male, Sprague-Dawley, pH 7.4) was 1.4 fold. For the same compound, the “CLINT for B[a]P exceeded that of DBC” value ([2]; male, Sprague-Dawley, pH 7.4) was 2.6 fold, the “Organism level CLINT, MM” value [2] was 65.90 ± 71.68 ml/min/kg body weight and the “Organism level CLINT, t 1/2” value [2] was 51.34 ± 22.19 ml/min/kg body weight. For the same compound, the “Tissue level CLINT, t 1/2” value [2] was 1.40 ± 0.61 ml/min/g tissue, the “B[a]P CLINT exceeded DBC CLINT, margin” value ([3]; female, microsomes, pH 7.4) was 13.3 fold and the “CLINT for B[a]P exceeded that of DBC” value ([3]; female, microsomes, pH 7.4) was 3.3 fold. For the same compound, the Km ([3]; female, pH 7.4) was 0.725 ± 0.581 µM, the “Organism level CLINT, MM” value ([3]; microsomes) was 27.16 ± 29.98 ml/min/kg body weight and the “Organism level CLINT, t 1/2” value ([3]; microsomes) was 54.69 ml/min/kg body weight. The “Tissue level CLINT, t 1/2” value ([3]; microsomes) was 2.13 ml/min/g tissue, the Km (in vitro [4]) was 4.97 ± 1.96 µM and the Km (in vitro [5]) was 18 ± 12.9 µM. For the same compound, the Km (in vitro [6]) was 0.73 µM and the “KM in male rats exceeded that in female mice” value (In vitro metabolism [7]; male rat relative to female mouse) was 3.6 fold.
In the case of c1ccc2c(c1)cc1ccc3cccc4c5ccccc5c2c1c34 [DBC, dibenzo[def,p]chrysene], the Km (In vitro metabolism [8]; female, B6129SF1/J, mouse, liver microsomes of pregnant (GD17) mice, pH 7.4) is reported as 3.28 ± 1.38 µM, the “Tissue level CLINT, MM” value (In vitro metabolism [8]; pregnant mouse, Michaelis-Menten method (Vmax/Km scaled)) is reported as 3.81 ± 2.28 ml/min/g tissue and the “Organism level CLINT, MM” value (In vitro metabolism [8]; pregnant mouse, Michaelis-Menten method, liver weight 41.8 g per kg body weight) is reported as 159.43 ± 95.51 ml/min/kg body weight. For the same compound, the “Tissue level CLINT, t 1/2” value (In vitro metabolism [8]; pregnant mouse, in vitro half-life method) was 3.31 ± 1.75 ml/min/g tissue, the “KM reduced in the pregnant animal” value (In vitro metabolism [8]; [11]) was 51% and the “VMAX reduced in the pregnant animal” value (In vitro metabolism [8]; [11]) was 35%. The “higher tissue level CLINT in the pregnant animal (Michaelis-Menten regression method)” value (In vitro metabolism [8]; [11]) was 30%, the “tissue level CLINT lower in the pregnant animal (in vitro half-life method)” value (In vitro metabolism [8]; [11]) was 28% and the IARC classification (humans) was “Group 2A”. For the same compound, the “Tissue level CLINT, MM” value (In vitro metabolism [9]; Michaelis-Menten method (Vmax/Km scaled)) was 0.32 ± 0.46 ml/min/g tissue, the “Organism level CLINT, MM” value (In vitro metabolism [9]; Michaelis-Menten method, liver weight 25.7 g per kg body weight) was 8.19 ± 11.73 ml/min/kg body weight and the “Tissue level CLINT, t 1/2” value (In vitro metabolism [9]; in vitro half-life method) was 0.16 ml/min/g tissue. For the same compound, the “Organism level CLINT, t 1/2” value (In vitro metabolism [9]; in vitro half-life method, liver weight 25.7 g per kg body weight) was 4.23 ml/min/kg body weight, the Vmax (In vitro metabolism [7]; male rat liver microsomes, Michaelis-Menten regression of substrate depletion) was 0.167 ± 0.064 nmol/min/mg MSP and the “Tissue level CLINT, MM” value (In vitro metabolism [7]; male rat, Michaelis-Menten method (Vmax/Km scaled)) was 0.69 ± 0.73 ml/min/g tissue. For the same compound, the “Organism level CLINT, MM” value (In vitro metabolism [7]; male rat, Michaelis-Menten method, liver weight 36.6 g per kg body weight) was 25.14 ± 26.85 ml/min/kg body weight, the “Tissue level CLINT, t 1/2” value (In vitro metabolism [7]; male rat, in vitro half-life method) was 1.01 ± 0.30 ml/min/g tissue and the “Organism level CLINT, t 1/2” value (In vitro metabolism [7]; male rat, in vitro half-life method, liver weight 36.6 g per kg body weight) was 37.05 ± 10.96 ml/min/kg body weight. It also gave a Km (In vitro metabolism [7]; male, Sprague-Dawley, rat, pH 7.4) of 7.28 ± 4.99 µM, a Km (In vitro metabolism [10]; female, B6129SF1/J, mouse, pH 7.4) of 6.63 ± 1.01 µM and a Vmax (In vitro metabolism [10]; naïve mouse liver microsomes, Michaelis-Menten regression of substrate depletion) of 0.646 ± 0.055 nmol/min/mg MSP. For the same compound, the “Tissue level CLINT, MM” value (In vitro metabolism [10]; naïve mouse, Michaelis-Menten method (Vmax/Km scaled)) was 2.92 ± 0.71 ml/min/g tissue, the “Organism level CLINT, MM” value (In vitro metabolism [10]; naïve mouse, Michaelis-Menten method, liver weight 55 g per kg body weight) was 160.71 ± 38.94 ml/min/kg body weight and the “Tissue level CLINT, t 1/2” value (In vitro metabolism [10]; naïve mouse, in vitro half-life method) was 4.59 ± 0.53 ml/min/g tissue. For the same compound, the “Organism level CLINT, t 1/2” value (In vitro metabolism [10]; naïve mouse, in vitro half-life method, liver weight 55 g per kg body weight) was 252.18 ± 29.26 ml/min/kg body weight.
